Test [1] concerns housefly (Musca domestica) antenna. Put plainly: GC-EAD antennal response, housefly. The note with it: female housefly antenna; synthetic mixture, about 100 ng of each compound; FIG. 3. An excerpt: The sesquiterpene hydrocarbons and their derivatives disclosed herein have been identified as suitable insect repellents by testing via a gas chromatographic-electroantennographic detection (GC-EAD) method as described in Example 1 below. This method can be used to efficiently screen for potentially behaviorally active compounds, including insect repellents, attractants, deterrents, or attraction-inhibitors from complex natural sources or synthetic mixtures.
The GC-EAD responses of the female housefly antenna were tested on a synthetic mixture of 1-octen-3-ol, a known attractant used as a positive control, and representative sesquiterpene hydrocarbons and derivatives, (+)-longipinene, (−)-isolongifolene, (+)-longifolene, β-caryophyllene, α-humulene, and isolongifolenone, with about 100 ng of each compound in the mixture.
The GC-EAD responses of the male housefly antenna were tested on a synthetic mixture of 1-octen-3-ol, and two representative sesquiterpenes, β-caryophyllene and isocaryophyllene, with about 100 ng of each compound in the mixture.
(§1) The following procedures were employed to test the EAD response of an insect antenna to a repellent compound. The GC-EAD technique provides an efficient tool for screening behaviorally active repellents. Several synthetic mixtures of potential insect repellent candidates, mostly sesquiterpene hydrocarbons and derivatives, were analyzed in splitless mode using a Varian CP-3800 GC equipped with a polar column (Innowax; 1.0 μm film thickness, 30 m×0.53 mm ID; J & W Scientific), and a 1:1 effluent splitter that allowed simultaneous flame ionization detection (FID) and EAD of the separated volatile compounds. Helium was used as the carrier gas, and the injector temperature was 220° C. The column temperature was 50° C. for 2 min, rising to 240° C. at 10° C./min, then held for 10 min. The outlet for the EAD was held in a humidified air stream flowing at 0.5 liter/min. over an antennal preparation. A glass capillary indifferent electrode filled with Beadle-Ephrussi Ringer, and grounded via a silver wire, was inserted into the severed insect's head with the antennae. A similar recording electrode connected to a high-impedance DC amplifier with automatic baseline drift compensation was placed in contact with the distal end of one antenna (Zhang et al., Chemoecology, 10:69-80 (2000)). The antennal signals were stored and analyzed on a PC equipped with a serial IDAC interface box and the program EAD ver. 2.5 (Syntech, Hilversum, The Netherlands). The compound 1-octen-3-ol (known attractant for many flies and mosquitoes) was included in most of the synthetic mixtures, as a positive control. The results of the experiments are shown in FIGS. 1-10 and described above.

The test system of test [2] is female mosquito Culex pipiens antenna. Put plainly: GC-EAD antennal response, Culex pipiens. The note with it: female Culex pipiens antennae; about 100 ng of each compound; responses weak, but repeatable; FIGS. 7 and 8. The procedure:
The GC-EAD responses of the female mosquito Culex pipiens antenna were tested on a synthetic mixture of 1-octen-3-ol, and two sesquiterpene hydrocarbons, β-caryophyllene and isocaryophyllene, with about 100 ng of each compound in the mixture.
The GC-EAD responses of the female mosquito Culex pipiens antenna were tested on a synthetic mixture of 1-octen-3-ol, and representative sesquiterpene hydrocarbons and derivatives including (+)-longipinene, (−)-isolongifolene, (+)-longifolene, β-caryophyllene, and isolongifolenone, with about 100 ng of each compound in the mixture.
Antennal responses were weak, but repeatable, thus are considered to be true responses.
as §1

The subject of test [3] is female antennae of sand fly Phlebotomus papatasi and mosquitoes Aedes aegypti, Anopheles gambiae, Anopheles stephensi. Nature of the test: GC-EAD responses of sand fly and three mosquitoes to synthetic mixtures. To be noted: about 100 ng of each compound, on one or more of the sand fly or the mosquitoes, FIGS. 9 and 10. Here is the method: The GC-EAD responses of female antennae of the sand fly, Phlebotomus papatasi, and three species of mosquitoes, Aedes aegypti, Anopheles gambiae, and anopheles stephensi were tested on a synthetic mixture of 1-octen-3-ol, six sesquiterpene hydrocarbons including (+)-longipinene, (−)-isolongifolene, (+)-longifolene, β-caryophyllene, isolongifolenone, and α-humulene, and several known insect repellents including ZE-nepetalactone, EZ-nepetalactone, with about 100 ng of each compound in the mixture.
The GC-EAD responses of female antennae of the sand fly, Phlebotomus papatasi, and three species mosquitoes, Aedes aegypti, Anopheles gambiae, and anopheles stephensi were tested on a synthetic mixture of 1-octen-3-ol, linalool, β-caryophyllene oxide, isocaryophyllene, β-caryophyllene, and α-humulene, and DEET, with about 100 ng of each compound in the mixture.
as §1

The test system of test [4] is houseflies. Nature of the test: Laboratory sticky trap bioassay of spatial repellency with egg powder attractant. Type of test: in vivo, housefly (Musca domestica). The note with it: egg powder plus repellent, FIG. 13. Here is the method:
Laboratory bioassay tests were carried out to investigate the efficacy of some of the EAD-active compounds described above to act as spatial repellents against several insects. The procedure for the bioassay tests is described in Example 2 below. Briefly stated, the bioassay included using egg powder (EP) as an attractant for flies, while the compound whose insect repellency was being tested was placed in proximity to the egg powder. In FIGS. 11-13, the bioassay was carried out on houseflies using devices known by the designation Trécé Pherocon® VI sticky traps.
The following lab bioassay tests were employed to illustrate the efficacy of the compounds to effectively act as spatial repellents for flies. Three sets of tests were conducted in a fly testing room (23° C., 70% RH, and 12/12 (L/D) light regime illuminated by fluorescent lights). Two sets of tests were carried out using Trécé Pherocon® VI traps with sticky inserts, which were set up on poles evenly spaced on a rotating table. The traps were ca. 1 m above a table surface, and ca. 1 m apart from each other. Two grams of egg powder in a white cap (4 cm in diameter, 0.5 cm in height) used as an attractant was put on the center of the sticky insert in the sticky trap. The potential repellent candidate chemicals were loaded into polyethylene bags, and were hung under the inner roof of the traps, 1-1.5 cm above the egg powder attractant. A control had the empty white cap and blank polyethylene bag, while the positive control had only the egg powder and an empty polyethylene bag. The test table was rotated 1.5 r.p.h. […] About 200-300 houseflies (2-3 days old) were released into the testing room for each test. Tests were normally run from 8:00 am to 5:00 pm, and the numbers of houseflies caught in each trap were counted after each test. The results of these tests are shown in FIGS. 11-13 and described above.

Regarding `CC1(C)C2=CCCC(C)(C)C23CCC1C3` (single isomer, unassigned; (-)) [(−)-isolongifolene, 2,2,7,7-tetramethyltricyclo undec-5-ene], the results for the GC-EAD antennal activity entry in test [1], in test [2] and in test [3] were “active”, “active” and “antennally active”, respectively. Also, in test [4] (egg powder alone 76 females), the “female house flies per trap” value is listed as 39 house flies per trap. Also, the “male house flies per trap” value in test [4] (egg powder alone 95 males) worked out at 30 house flies per trap.

Source of the values: patent US8057829B2, “Methods for repelling insects using sesquiterpene hydrocarbons and their derivatives” (Sterling International Inc., priority 2008, dated 2011).
